Laboratory results taken from patent publication US7407988B2, “Carbamic acid compounds comprising a sulfonamide linkage as HDAC inhibitors” (Topotarget UK Limited, priority 2000, dated 2008).
Read-outs that look alike come from different tables or passages of the source.

Experiments:
[1] = system: HDAC (HeLa cell extract); assay: Primary assay: deacetylase activity, HeLa cell extract as source of HDAC; assay type: biochemical, human
From the text: (§1) Briefly, this assay relies on the release of radioactive acetate from a radioactively labelled histone fragment by the action of HDAC enzyme. Test compounds, which inhibit HDAC, reduce the yield of radioactive acetate. Signal (e.g., scintillation counts) measured in the presence and absence of a test compound provide an indication of that compound's ability to inhibit HDAC activity. Decreased activity indicates increased inhibition by the test compound.
(§2) The histone fragment was an N-terminal sequence from histone H4, and it was labelled with radioactively labelled acetyl groups using tritiated acetylcoenzyme A (coA) in conjunction with an enzyme which is the histone acetyltransferase domain of the transcriptional coactivator p300. […] The acetylated peptide was then separated from free acetyl coA by size exclusion chromatography on Sephadex G-15 (Sigma G-15-120), using distilled H2O as the mobile phase.
(§3) After purification of the radiolabelled histone fragment, it was incubated with a source of HDAC (e.g., an extract of HeLa cells (a rich source of HDAC), recombinantly produced HDAC1 or HDAC2) and any released acetate was extracted into an organic phase and quantitatively determined using scintillation counting. By including a test compound with the source of HDAC, that compound's ability to inhibit the HDAC was determined.
Two cell volumes of extraction buffer were used, and particulate material was centrifuged out (20800 g, 4° C., 10 min). The supernatant extract having deacetylase activity was aliquotted and frozen for storage.
A source of HDAC (e.g., 2 μL of crude HeLa extract, 5 μL of HDAC1 or HDAC2; in elution buffer, as above) was incubated with 3 μL of radioactively labelled peptide along with appropriate dilutions of candidate compounds (1.5 μL) in a total volume of 150 μL of buffer (20 mM Tris pH 7.4, 10% glycerol). The reaction was carried out at 37° C. for one hour, after which the reaction was stopped by adding 20 μL of 1 M HCl/0.4 M sodium acetate. […] Radioactivity was measured using a Tri-Carb 21 00TR Liquid Scintillation Analyzer (Packard).
(§4) Percent activity (% activity) for each test compound was calculated as: % activity={(S^C−B)/(S°−B)}×100 wherein S^C denotes signal measured in the presence of enzyme and the compound being tested, S° denotes signal measured in the presence of enzyme but in the absence of the compound being tested, and B denotes the background signal measured in the absence of both enzyme and compound being tested.

[2] = system: HeLa cells; assay: Secondary assay: cell proliferation WST-1, HeLa; assay type: cell-based; settings: Homo sapiens, read-out: Cell Proliferation Inhibition WST-1 (IC50 unless otherwise specified) HeLa
[3] = system: NHEK-Ad primary human adult keratinocyte line; assay: Secondary assay: cell proliferation WST-1, NHEK-Ad; assay type: cell-based; settings: 48 h, read-out: Cell Proliferation Inhibition WST-1 (IC50 unless otherwise specified) NHEK-AD
[4] = system: K11 HPV E7 transformed human keratinocyte line; assay: Secondary assay: cell proliferation WST-1, K11; assay type: cell-based; settings: Table 2, 48 h, read-out: Cell Proliferation Inhibition WST-1 (IC50 unless otherwise specified) K11
[5] = system: JURKAT human T-cell line; assay: Secondary assay: cell proliferation WST-1, Jurkat; assay type: cell-based; settings: Table 2, 48 h, read-out: Cell Proliferation Inhibition WST-1 (IC50 unless otherwise specified) Jurkat
[6] = target: T1, human HDAC2 (Homo sapiens, UniProt Q92769); assay: Primary assay: deacetylase activity, recombinantly produced HDAC2; assay type: biochemical; settings: Table 1; recombinant HDAC2; read-out: HDAC Inhibition (IC50 unless otherwise specified) HDAC2
T1 construct: Full length human HDAC2 was subcloned; Flag (carried over from the HDAC2-pFlag-CTC construct; inferred by analogy to HDAC1) (C); implied by Ni-NTA purification) (N); made in house; host or cells: SF9 insect cells (baculovirus)

[7] = target: T2, human HDAC1 (Homo sapiens, UniProt Q13547); assay: Primary assay: deacetylase activity, recombinantly produced HDAC1; assay type: biochemical; settings: Table 1; recombinant HDAC1; read-out: HDAC Inhibition (IC50 unless otherwise specified) HDAC1
T2 construct: Full length human HDAC1 was cloned by PCR; Flag (C); implied by Ni-NTA purification) (N); made in house; host or cells: SF9 insect cells (baculovirus)
From the text: as §1, §2, §3
Full length human HDAC1 was cloned by PCR using a λgt11 Jurkat cDNA library (Clontech-HL5012b). […] A second PCR was carried out in order to amplify a fragment containing the HDAC1 sequence fused to the Flag tag.
Amplification of recombinant viruses was performed according to the Pharmingen Instruction Manual.
For protein production, 2×10^7 cells were infected with the appropriate recombinant virus for 3 days. Cells were then harvested and spun at 3,000 rpm for 5 minutes. They were then washed twice in PBS and resuspended in 2 pellet volumes of lysis buffer (25 mM HEPES pH 7.9, 0.1 mM EDTA, 400 mM KCl, 10% glycerol, 0.1% NP-40, 1 mM AEBSF). […]
A source of HDAC (e.g., 2 μL of crude HeLa extract, 5 μL of HDAC1 or HDAC2; in elution buffer, as above) was incubated with 3 μL of radioactively labelled peptide along with appropriate dilutions of candidate compounds (1.5 μL) in a total volume of 150 μL of buffer (20 mM Tris pH 7.4, 10% glycerol). […] Radioactivity was measured using a Tri-Carb 21 00TR Liquid Scintillation Analyzer (Packard).
as §4

[8] = Table 1, read-out: HDAC Inhibition (IC50 unless otherwise specified) HeLa
[9] = comparative tables, HDAC inhibition, read-out: HeLa IC50
[10] = Homo sapiens, Keratinocyte, Table 2, NHEK-AD

T2 sequence (Q13547 whole entry): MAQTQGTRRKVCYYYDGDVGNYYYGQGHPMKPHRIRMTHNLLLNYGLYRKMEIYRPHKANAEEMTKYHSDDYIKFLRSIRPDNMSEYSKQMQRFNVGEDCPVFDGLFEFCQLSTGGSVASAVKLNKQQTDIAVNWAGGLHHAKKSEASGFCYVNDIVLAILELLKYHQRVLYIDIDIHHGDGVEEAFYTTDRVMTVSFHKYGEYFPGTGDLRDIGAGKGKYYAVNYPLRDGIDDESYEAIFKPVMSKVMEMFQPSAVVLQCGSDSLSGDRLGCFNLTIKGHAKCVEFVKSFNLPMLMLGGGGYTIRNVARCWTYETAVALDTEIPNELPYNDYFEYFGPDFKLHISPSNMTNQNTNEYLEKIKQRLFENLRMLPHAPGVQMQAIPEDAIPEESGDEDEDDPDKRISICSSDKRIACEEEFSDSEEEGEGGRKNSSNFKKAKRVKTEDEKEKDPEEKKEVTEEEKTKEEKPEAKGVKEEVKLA
T1 sequence (Q92769 whole entry): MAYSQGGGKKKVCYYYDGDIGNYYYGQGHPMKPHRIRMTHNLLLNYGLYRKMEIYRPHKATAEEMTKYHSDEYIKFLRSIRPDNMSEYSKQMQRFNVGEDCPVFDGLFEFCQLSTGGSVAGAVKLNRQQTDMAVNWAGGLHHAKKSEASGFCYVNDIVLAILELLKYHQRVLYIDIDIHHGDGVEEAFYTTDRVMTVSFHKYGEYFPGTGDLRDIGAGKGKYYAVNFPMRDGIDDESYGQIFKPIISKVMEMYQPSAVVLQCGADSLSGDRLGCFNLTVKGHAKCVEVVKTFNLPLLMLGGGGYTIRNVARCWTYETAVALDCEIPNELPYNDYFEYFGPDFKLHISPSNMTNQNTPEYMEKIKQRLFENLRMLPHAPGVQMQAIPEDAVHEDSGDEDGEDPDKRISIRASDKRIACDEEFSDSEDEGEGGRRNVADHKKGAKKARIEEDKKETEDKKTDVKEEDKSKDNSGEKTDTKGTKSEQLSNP

SMILES | IC50 [1, 8] [nM] | IC50 [1, 9] [nM] | IC50 ([2]; 48 h) [nM] | IC50 ([3]; Homo sapiens, Keratinocyte) [nM] | IC50 ([4]; Homo sapiens, Keratinocyte) [nM] | IC50 ([5]; Homo sapiens) [nM] | melting point [°C] | IC50 ([2]; Table 2, 48 h) [nM] | IC50 [3, 10] [nM] | IC50 ([3]; Table 2, NHEK-AD) [nM] | IC50 [4] [nM] | IC50 [5] [nM] | IC50 [6] [nM] | IC50 [7] [nM]
O=C(/C=C/C#Cc1cccc(NS(=O)(=O)c2ccccc2)c1)NO [Oxamflatin, (2E)-5-[3-[(phenylsulfonyl)amino]phenyl]-pent-2-en-4-ynohydroxamic acid, reference compound] | 38 | 38 | 1100 | 3530 | 4560 | 260 |  |  |  |  |  |  |  | 
O=C(/C=C/c1cccc(S(=O)(=O)Nc2ccc3ccccc3c2)c1)NO [PX117445, N-Hydroxy-3-[3-(naphthalen-2-ylsulfamoyl)-phenyl]-acrylamide] | 2 |  |  |  | 1200 | 130 | 164 | 1100 | 750 |  |  |  |  | 
Nc1ccccc1NC(=O)c1ccc(CNC(=O)OCc2cccnc2)cc1 [MS-275, reference compound] |  |  |  |  |  |  |  |  |  | 3100 | 9160 | 365 |  | 
O=C(/C=C/c1cccc(S(=O)(=O)Nc2ccccc2)c1)NO [PX105684, N-Hydroxy-3-(3-phenylsulfamoylphenyl)acrylamide] |  |  |  |  | 2400 | 200 |  | 2200 | 1500 |  |  |  |  | 
CN(c1ccccc1)S(=O)(=O)c1cccc(/C=C/C(=O)NO)c1 [PX105685] |  |  | 7300 |  |  |  |  |  |  |  |  |  | 600 | 
Cc1ccc(NS(=O)(=O)c2cccc(/C=C/C(=O)NO)c2)cc1 [PX106508] | 31 | 31 |  |  | 3500 | 300 | 200 | 1600 |  |  |  |  |  | 90
CC(/C=C/C(=O)NO)=C\[C@@H](C)C(=O)c1ccc(N(C)C)cc1 [TSA, trichostatin A, reference compound] |  |  |  |  | 380 | 42 |  | 350 | 200 |  |  |  |  | 
O=C(/C=C/c1cccc(S(=O)(=O)Nc2cccc3ccccc23)c1)NO [PX117228, N-Hydroxy-3-[3-(naphthalen-1-ylsulfamoyl)-phenyl]-acrylamide] | 7 | 7 | 800 | 1200 | 1400 | 150 | 180 |  |  |  |  |  |  | 
COc1ccc(NS(=O)(=O)c2cccc(/C=C/C(=O)NO)c2)cc1 [PX105844] | 15 |  |  |  |  |  | 186 | 400 |  |  |  |  |  | 29
Cc1ccc(S(=O)(=O)Nc2cccc(/C=C/C(=O)NO)c2)cc1 [PX089342, N-Hydroxy-3-[3(toluene-4-sulfonylamino)-phenyl]-acrylamide] | 125 | 125 |  |  |  |  | 147 | 4100 |  |  |  |  |  | 50
O=C(CCCCCCCS(=O)(=O)Nc1ccccc1)NO [PX117245] | 16 |  |  |  |  | 1100 | 87 to 88 | 310 | 520 |  |  |  |  | 
O=C(/C=C/c1cccc(S(=O)(=O)Nc2ccc(OC(F)(F)F)cc2)c1)NO [PX117775, N-Hydroxy-3-[3-(4-trifluoromethoxy-phenylsulfamoyl)-phenyl]-acrylamide] | 16 |  |  |  | 5300 | 530 | 131 | 2100 |  |  |  |  |  | 
O=C(/C=C/c1cccc(S(=O)(=O)Nc2ccc(Cl)cc2)c1)NO [PX106510] | 12 |  |  |  | 4200 | 250 | 198 | 2300 |  |  |  |  |  | 
O=C(/C=C/c1cccc(S(=O)(=O)NCCc2ccccc2)c1)NO [PX106512] | 22 | 22 |  |  | 2400 | 210 | 114 | 1900 |  |  |  |  |  | 458
COc1ccc(S(=O)(=O)Nc2ccc(/C=C/C(=O)NO)cc2)cc1OC [PX117794, (E)-N-Hydroxy-3-[4-(3,4-dimethoxyphenylsulfonylamino)-phenyl]-2-propenamide] | 24 |  |  |  | 2300 | 600 | 178.5 to 179 | 3300 |  |  |  |  |  | 
O=C(/C=C/c1cccc(NS(=O)(=O)c2ccccc2)c1)NO [PX089344, 3-(3-Benzenesulfonylamino-phenyl)N-hydroxy-acrylamide] | 89 | 89 |  |  |  |  | 172 | 8900 |  |  |  |  | 172 | 
O=C(/C=C/c1ccc(S(=O)(=O)Nc2ccc(-c3ccccc3)cc2)cc1)NO [PX117792, N-Hydroxy-3-[4-(biphenyl-4-ylsulfamoyl)-phenyl]-acrylamide] | 48 |  |  |  | 400 | 430 | 211 to 211.5 | 1400 |  |  |  |  |  | 
